In ChEMBL document CHEMBL1201862, “PubChem BioAssay data set” (2004):
Calls of active or inactive are those of the source. Rule as the data show it, for most assays here: actives have a measured AC50 and inactives only a lower limit.

Key:
[1] = molecular target: T1, Coagulation factor XII (Homo sapiens, UniProt P00748); assay: activated coagulation factor XII inhibitor potency, concentration-effect curve, cell-free (AID 716); type: functional
T1 sequence (P00748 whole entry): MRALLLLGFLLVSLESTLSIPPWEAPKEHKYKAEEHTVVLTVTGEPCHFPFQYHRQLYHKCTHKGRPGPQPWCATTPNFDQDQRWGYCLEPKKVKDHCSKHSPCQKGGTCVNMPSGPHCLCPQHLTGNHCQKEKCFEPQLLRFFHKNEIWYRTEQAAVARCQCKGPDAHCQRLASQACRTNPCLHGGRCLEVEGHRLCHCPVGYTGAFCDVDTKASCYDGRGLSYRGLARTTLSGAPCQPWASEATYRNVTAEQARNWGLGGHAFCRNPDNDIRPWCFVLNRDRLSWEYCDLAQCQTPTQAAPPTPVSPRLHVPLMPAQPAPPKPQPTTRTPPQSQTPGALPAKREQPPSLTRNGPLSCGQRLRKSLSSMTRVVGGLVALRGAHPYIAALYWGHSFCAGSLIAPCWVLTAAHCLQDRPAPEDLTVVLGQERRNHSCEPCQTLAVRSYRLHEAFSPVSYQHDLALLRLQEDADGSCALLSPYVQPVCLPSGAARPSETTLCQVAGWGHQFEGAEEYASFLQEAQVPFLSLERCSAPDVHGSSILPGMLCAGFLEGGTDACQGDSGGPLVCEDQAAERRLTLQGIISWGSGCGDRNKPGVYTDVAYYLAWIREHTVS

[2] = molecular target: CAAX prenyl protease 2 (Homo sapiens, UniProt Q9Y256); assay: inhibition of Ras-converting CAAX protease Rce1 – biochemical, yeast membranes, quenched-peptide fluorescence, cherry-pick, dose response (AID 588849)
CAAX prenyl protease 2 (Homo sapiens, UniProt Q9Y256), sequence (Q9Y256 whole entry): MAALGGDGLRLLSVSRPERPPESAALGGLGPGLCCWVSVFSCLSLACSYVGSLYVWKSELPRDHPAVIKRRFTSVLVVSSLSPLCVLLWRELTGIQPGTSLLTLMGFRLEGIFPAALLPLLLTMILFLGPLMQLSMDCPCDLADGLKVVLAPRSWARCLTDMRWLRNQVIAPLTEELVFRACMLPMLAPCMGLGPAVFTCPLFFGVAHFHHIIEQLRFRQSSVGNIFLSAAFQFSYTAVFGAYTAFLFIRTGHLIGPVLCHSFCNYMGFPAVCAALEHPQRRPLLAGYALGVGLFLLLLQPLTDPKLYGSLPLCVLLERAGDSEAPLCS

[3] = molecular target: Trypsin (Sus scrofa, UniProt P00761); assay: trypsin protease activity blockade – biochemical, quenched peptide fluorescence, cherry-pick, selectivity assay for Rce1 protease inhibitor project, dose response (AID 488789)
Trypsin, sequence (P00761 whole entry): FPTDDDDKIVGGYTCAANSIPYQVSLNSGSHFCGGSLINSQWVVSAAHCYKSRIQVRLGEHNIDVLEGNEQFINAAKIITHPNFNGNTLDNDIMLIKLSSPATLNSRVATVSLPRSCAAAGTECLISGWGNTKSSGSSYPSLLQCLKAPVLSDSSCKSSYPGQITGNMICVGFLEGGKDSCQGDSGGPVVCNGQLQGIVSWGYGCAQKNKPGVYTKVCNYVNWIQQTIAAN

[4] = molecular target: CAAX prenyl protease 2 (Saccharomyces cerevisiae S288c, UniProt Q03530); type: biochemical
CAAX prenyl protease 2 (Saccharomyces cerevisiae S288c, UniProt Q03530), sequence (Q03530 whole entry): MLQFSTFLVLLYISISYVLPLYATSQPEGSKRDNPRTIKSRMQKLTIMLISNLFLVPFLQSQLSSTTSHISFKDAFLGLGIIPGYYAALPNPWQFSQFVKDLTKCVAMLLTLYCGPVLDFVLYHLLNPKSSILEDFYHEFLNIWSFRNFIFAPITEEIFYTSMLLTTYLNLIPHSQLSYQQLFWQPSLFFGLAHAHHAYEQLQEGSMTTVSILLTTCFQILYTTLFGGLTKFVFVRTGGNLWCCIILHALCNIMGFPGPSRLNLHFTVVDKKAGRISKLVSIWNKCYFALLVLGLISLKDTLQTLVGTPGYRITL

For `CC(C)NC(=O)CCCc1cn(C)c2ccccc12`, the IC50 [1] was > 50 µM (inactive).

For `CC1(C(=O)N(CC(=O)NC2CCCC2)Cc2ccccc2)CC(=O)N=C2C=CC=CN21` (centres undefined), the AC50 [2] was 2.75 µM (active), the AC50 [3] was 4.57 µM (active) and the AC50 [4] was 4.24 µM (active).
